{"source": "paper PMC6941952", "about": "“A homogeneous bioluminescent immunoassay to probe cellular signaling pathway regulation” (Communications Biology, 2020)", "tested_on": "STAT3 Phospho-Tyr705", "test": "NanoBiT pSTAT3 cell-based immunoassay in A431 cells", "set-up": "species or system human", "conditions": "for P-STAT3 (% compared to no inhibitor) Average / P-STAT3 (% compared to no inhibitor): IL-6 10 ng/ml; for P-STAT3 (% compared to no inhibitor): replicate", "experimental": "Prior to NanoBiT Cell-Based Immunoassay, 50,000 cells were seeded in 160 µl of complete growth media per well of a 96-well plate and incubated overnight. […] If necessary, the cell culture media were replaced with serum-free media after the cells were stably adherent on the plate and incubated overnight. To treat cells with activators or inhibitors, medium was changed to 30 µl of medium containing inhibitors. If activation of a specific pathway is needed, the cells were stimulated with 10 µl of medium containing activators. To lyse the cells, 10 µl of lysis buffer containing 0.1% digitonin diluted in 1X immunoassay buffer with protease and phosphatase inhibitors was added and the plates were mixed vigorously for 20 min. Then, 50 µl of an antibody mix containing two primary antibodies against the target protein and NanoBiT detecting antibodies (0.3 µl each per well), diluted in 1X immunoassay buffer was added to the lysates. The plates were incubated at 23 °C for 90 min, followed by the addition of 25 µl of Nano-Glo® reagent consisting of Nano-Glo® Luciferase Assay Substrate mixed with 1X immunoassay buffer. Luminescence was measured using a plate-reading luminometer.\nSingle dose or dose response inhibitor treatments were performed prior to activation of the pathways as follows. For IκBα, the cells were treated in 30 µl medium with IKK16 or MG132 for 60 min before the addition of 10 µl of DMEM containing appropriate concentration of TNFα. To measure phosphorylation of AKT or STAT3, the corresponding NanoBiT immunoassays were developed with MCF-7 or A431 cells, respectively, according the same scheme used to develop the IκBα assay using the primary antibodies for AKT and STAT3 described in the reagents section. […] Treatment with LY294002 was performed in 30 µl medium and cells were incubated for 60 min before the addition of 1 µM Insulin. To measure STAT3 phosphorylation, A431 cells were incubated overnight in DMEM medium without serum. […] After addition of the stimulators, the cells were incubated for additional times as follows. IκBα phosphorylation and degradation analyses required both time courses and single time points as described in figures. […] The NanoBiT immunoassay protocol was followed as described above.\nAll 96-well assay plates were read using a GloMax® 96 Microplate Luminometer from Promega. The instrument was set to 0.5 s integration time. In order to obtain net change of signal, the reagent background values (signal from the well containing all reagent except primary antibodies) were subtracted from the sample values. To plot and analyze the data, Microsoft Excel and GraphPad Prism® Software were used. IC50 values were determined by using a nonlinear regression fit to a sigmoidal dose response (variable slope).", "note": "“And” between values parts separate entries of the source, which are not always exact repeats. Identical values can stand only once."}
{"smiles": "N#CC[C@H](C1CCCC1)n1cc(-c2ncnc3[nH]ccc23)cn1", "note": "[Ruxolitinib]", "values": [{"measurement": "IL-6-induced increase in STAT3 phosphorylation", "setting": "A431 cells, 1 µM 1 h, IL-6 10 ng per ml 30 min", "value": "suppressed"}, {"measurement": "P-STAT3 (% compared to no inhibitor) Average", "setting": "inhibitor 0.0190735 nM", "value": 95.1, "unit": "%"}, {"measurement": "P-STAT3 (% compared to no inhibitor) Average", "setting": "inhibitor 0.038147 nM", "value": 97.5, "unit": "%"}, {"measurement": "P-STAT3 (% compared to no inhibitor) Average", "setting": "inhibitor 0.0762939 nM", "value": 97.0, "unit": "%"}, {"measurement": "P-STAT3 (% compared to no inhibitor) Average", "setting": "inhibitor 0.152588 nM", "value": 107.8, "unit": "%"}, {"measurement": "P-STAT3 (% compared to no inhibitor) Average", "setting": "inhibitor 0.305176 nM", "value": 102.4, "unit": "%"}, {"measurement": "P-STAT3 (% compared to no inhibitor) Average", "setting": "inhibitor 0.610352 nM", "value": 97.6, "unit": "%"}, {"measurement": "P-STAT3 (% compared to no inhibitor) Average", "setting": "inhibitor 1.2207 nM", "value": 97.9, "unit": "%"}, {"measurement": "P-STAT3 (% compared to no inhibitor) Average", "setting": "inhibitor 2.44141 nM", "value": 96.4, "unit": "%"}, {"measurement": "P-STAT3 (% compared to no inhibitor) Average", "setting": "inhibitor 4.88281 nM", "value": 89.5, "unit": "%"}, {"measurement": "P-STAT3 (% compared to no inhibitor) Average", "setting": "inhibitor 9.76562 nM", "value": 75.7, "unit": "%"}, {"measurement": "P-STAT3 (% compared to no inhibitor) Average", "setting": "inhibitor 19.5312 nM", "value": 80.7, "unit": "%"}, {"measurement": "P-STAT3 (% compared to no inhibitor) Average", "setting": "inhibitor 39.0625 nM", "value": 62.0, "unit": "%"}, {"measurement": "P-STAT3 (% compared to no inhibitor) Average", "setting": "inhibitor 78.125 nM", "value": 39.8, "unit": "%"}, {"measurement": "P-STAT3 (% compared to no inhibitor) Average", "setting": "inhibitor 156.25 nM", "value": 26.0, "unit": "%"}, {"measurement": "P-STAT3 (% compared to no inhibitor) Average", "setting": "inhibitor 312.5 nM", "value": 16.9, "unit": "%"}, {"measurement": "P-STAT3 (% compared to no inhibitor) Average", "setting": "inhibitor 625 nM", "value": 16.7, "unit": "%"}, {"measurement": "P-STAT3 (% compared to no inhibitor) Average", "setting": "inhibitor 2500 nM", "value": 13.8, "unit": "%"}, {"measurement": "P-STAT3 (% compared to no inhibitor) Average", "setting": "inhibitor 5000 nM", "value": 15.3, "unit": "%"}, {"measurement": "P-STAT3 (% compared to no inhibitor) Average", "setting": "inhibitor 10000 nM", "value": 10.3, "unit": "%"}, {"measurement": "P-STAT3 (% compared to no inhibitor) Average", "setting": "inhibitor […]", "value": 12.9, "unit": "%"}, {"measurement": "P-STAT3 (% compared to no inhibitor)", "setting": "inhibitor 0.0190735 nM", "value": "96.2% and 96.8% and 92.2%"}, {"measurement": "P-STAT3 (% compared to no inhibitor)", "setting": "inhibitor 0.038147 nM", "value": "95.4% and 106.7% and 90.5%"}, {"measurement": "P-STAT3 (% compared to no inhibitor)", "setting": "inhibitor 0.0762939 nM", "value": "96.2% and 100.5% and 94.3%"}, {"measurement": "P-STAT3 (% compared to no inhibitor)", "setting": "inhibitor 0.152588 nM", "value": "95.8% and 119.8% and 107.8%"}, {"measurement": "P-STAT3 (% compared to no inhibitor)", "setting": "inhibitor 0.305176 nM", "value": "98.2% and 103.8% and 105.3%"}, {"measurement": "P-STAT3 (% compared to no inhibitor)", "setting": "inhibitor 0.610352 nM", "value": "90.4% and 95.8% and 106.7%"}, {"measurement": "P-STAT3 (% compared to no inhibitor)", "setting": "inhibitor 1.2207 nM", "value": "97.3% and 105.4% and 90.9%"}, {"measurement": "P-STAT3 (% compared to no inhibitor)", "setting": "inhibitor 2.44141 nM", "value": "104.8% and 99.5% and 84.9%"}, {"measurement": "P-STAT3 (% compared to no inhibitor)", "setting": "inhibitor 4.88281 nM", "value": "81.2% and 88.5% and 98.7%"}, {"measurement": "P-STAT3 (% compared to no inhibitor)", "setting": "inhibitor 9.76562 nM", "value": "52.6% and 91.9% and 82.5%"}, {"measurement": "P-STAT3 (% compared to no inhibitor)", "setting": "inhibitor 19.5312 nM", "value": "89.5% and 78.3% and 74.3%"}, {"measurement": "P-STAT3 (% compared to no inhibitor)", "setting": "inhibitor 39.0625 nM", "value": "59.3% and 71.3% and 55.5%"}, {"measurement": "P-STAT3 (% compared to no inhibitor)", "setting": "inhibitor 78.125 nM", "value": "39.9% and 42.8% and 36.6%"}, {"measurement": "P-STAT3 (% compared to no inhibitor)", "setting": "inhibitor 156.25 nM", "value": "30.4% and 24.5% and 23.1%"}, {"measurement": "P-STAT3 (% compared to no inhibitor)", "setting": "inhibitor 312.5 nM", "value": "16.4% and 18.5% and 15.8%"}, {"measurement": "P-STAT3 (% compared to no inhibitor)", "setting": "inhibitor 625 nM", "value": "19.9% and 15.7% and 14.5%"}, {"measurement": "P-STAT3 (% compared to no inhibitor)", "setting": "inhibitor 2500 nM", "value": "12.6% and 13.9% and 14.8%"}, {"measurement": "P-STAT3 (% compared to no inhibitor)", "setting": "inhibitor 5000 nM", "value": "13.4% and 17.3% and 15.2%"}, {"measurement": "P-STAT3 (% compared to no inhibitor)", "setting": "inhibitor 10000 nM", "value": "6.2% and 9.4% and 15.3%"}]}
